Data: patent US20100048696A1, “AGRICULTURAL DISEASE CONTROL AGENT” (Idemitsu Kosan Co., Ltd., priority 2007, published 2010)
Read-outs that look alike come from different tables or passages of the source.

How the values were obtained:
[1] = tested on: Erwinia carotovora var. cartovora; experiment: Test using potatoes: blackleg pathogenesis after cutting with disinfected knife; assay type: in vivo, potatoes Norin No. 1; details: for Degree of pathogenesis: knife immersed 5 seconds at 5° C., average of 5 potatoes, about two months after seeding; for sterilization in test using potatoes (in words): 5 to 10 times solution
Burkholderia plantarii = experiment: Material disinfection test; assay type: cell-based; details: 5 minutes
Burkholderia glumae = experiment: Material disinfection test; assay type: cell-based; details: 5 minutes
[2] = tested on: bacteria pathogens and filamentous fungi pathogens; assay type: cell-based
[3] = tested on: Erwinia carotovora var. cartovora; experiment: Basic test: cutting knife disinfection, blackleg pathogens; assay type: cell-based; details: knife immersed 5 seconds; for sterilization of blackleg pathogens (in words): 2 to 10 times solutions; for sterilization effect on blackleg pathogens (in words): 25 to 50 times solutions
[4] = tested on: Clavibacter michiganense subsp. Nebraskense (ATCC27822); experiment: Basic test: cutting knife disinfection, ring rot pathogens; assay type: cell-based; details: knife immersed 5 seconds; for sterilization of ring rot pathogens (in words): 2 to 10 times solutions; for sterilization effect on ring rot pathogens (in words): 25 to 50 times solutions
Fusarium oxysporum = experiment: Material disinfection test; assay type: cell-based; details: 5 minutes
Botrytis cinerea = experiment: Material disinfection test; assay type: cell-based; details: 5 minutes
Erwinia chrysanthemi = experiment: Material disinfection test; assay type: cell-based; details: 5 minutes
Pyricularia oryzae = assay type: cell-based; details: 5 minutes
Pythium ultimum = experiment: Material disinfection test; assay type: cell-based; details: 5 minutes
Rhizoctonia solani = experiment: Material disinfection test; assay type: cell-based; details: 5 minutes
Ralstonia solanacearum = assay type: cell-based; details: 5 minutes

O=C(O)/C=C\C(=O)O [Maleic acid]
Degree of pathogenesis ([1]; 5 times solution): 0
sterilization in test using potatoes (in words) [1]: complete sterilization
Degree of pathogenesis ([1]; 10 times solution): 0
sterilization effect in test using potatoes (in words) ([1]; 50 times solution): high sterilization effect
Degree of pathogenesis ([1]; 50 times solution): 3 (20 to less than 40%)
Average value of viable bacteria counts on all materials examined (Burkholderia plantarii; 2 times solution sprayed): 0 cfu/ml
Average value of viable bacteria counts on all materials examined (Burkholderia plantarii; 5 times solution sprayed): 0 cfu/ml
Average value of viable bacteria counts on all materials examined (Burkholderia plantarii; 25 times solution sprayed): 0 cfu/ml
Average value of viable bacteria counts on all materials examined (Burkholderia plantarii; 50 times solution sprayed): 0 cfu/ml
Average value of viable bacteria counts on all materials examined (Burkholderia plantarii; 100 times solution sprayed): 0 cfu/ml
Average value of viable bacteria counts on all materials examined (Burkholderia plantarii; 200 times solution sprayed): 65 cfu/ml
Average value of viable bacteria counts on all materials examined (Burkholderia plantarii; 500 times solution sprayed): 1.5 × 10^2 cfu/ml
Average value of viable bacteria counts on all materials examined (Burkholderia glumae; 2 times solution sprayed): 0 cfu/ml
Average value of viable bacteria counts on all materials examined (Burkholderia glumae; 5 times solution sprayed): 0 cfu/ml
Average value of viable bacteria counts on all materials examined (Burkholderia glumae; 25 times solution sprayed): 0 cfu/ml
Average value of viable bacteria counts on all materials examined (Burkholderia glumae; 50 times solution sprayed): 0 cfu/ml
Average value of viable bacteria counts on all materials examined (Burkholderia glumae; 100 times solution sprayed): 0 cfu/ml
Average value of viable bacteria counts on all materials examined (Burkholderia glumae; 200 times solution sprayed): 93 cfu/ml
Average value of viable bacteria counts on all materials examined (Burkholderia glumae; 500 times solution sprayed): 5.0 × 10^3 cfu/ml
sterilization in material disinfection test (in words) [2]: complete sterilization
sterilization of blackleg pathogens (in words) [3]: complete sterilization
sterilization effect on blackleg pathogens (in words) [3]: high sterilization effect
sterilization of ring rot pathogens (in words) [4]: complete sterilization
sterilization effect on ring rot pathogens (in words) [4]: high sterilization effect
average value of viable filamentous fungi counts on all materials examined (Fusarium oxysporum; 2 times solution sprayed): 0 cfu/ml
average value of viable filamentous fungi counts on all materials examined (Fusarium oxysporum; 5 times solution sprayed): 0 cfu/ml
average value of viable filamentous fungi counts on all materials examined (Fusarium oxysporum; 25 times solution sprayed): 0 cfu/ml
average value of viable filamentous fungi counts on all materials examined (Fusarium oxysporum; 50 times solution sprayed): 0 cfu/ml
average value of viable filamentous fungi counts on all materials examined (Fusarium oxysporum; 100 times solution sprayed): 0 cfu/ml
average value of viable filamentous fungi counts on all materials examined (Fusarium oxysporum; 200 times solution sprayed): 1.1 × 10^2 cfu/ml
average value of viable filamentous fungi counts on all materials examined (Fusarium oxysporum; 500 times solution sprayed): 7.8 × 10^2 cfu/ml
average value of viable filamentous fungi counts on all materials examined (Botrytis cinerea; 2 times solution sprayed): 0 cfu/ml
average value of viable filamentous fungi counts on all materials examined (Botrytis cinerea; 5 times solution sprayed): 0 cfu/ml
average value of viable filamentous fungi counts on all materials examined (Botrytis cinerea; 25 times solution sprayed): 0 cfu/ml
average value of viable filamentous fungi counts on all materials examined (Botrytis cinerea; 50 times solution sprayed): 0 cfu/ml
average value of viable filamentous fungi counts on all materials examined (Botrytis cinerea; 100 times solution sprayed): 0 cfu/ml
average value of viable filamentous fungi counts on all materials examined (Botrytis cinerea; 200 times solution sprayed): 1.7 × 10^2 cfu/ml
average value of viable filamentous fungi counts on all materials examined (Botrytis cinerea; 500 times solution sprayed): 1.0 × 10^2 cfu/ml
Average value of viable bacteria counts on all materials examined (Erwinia chrysanthemi; 2 times solution sprayed): 0 cfu/ml
Average value of viable bacteria counts on all materials examined (Erwinia chrysanthemi; 5 times solution sprayed): 0 cfu/ml
Average value of viable bacteria counts on all materials examined (Erwinia chrysanthemi; 25 times solution sprayed): 0 cfu/ml
Average value of viable bacteria counts on all materials examined (Erwinia chrysanthemi; 50 times solution sprayed): 0 cfu/ml
Average value of viable bacteria counts on all materials examined (Erwinia chrysanthemi; 100 times solution sprayed): 0 cfu/ml
Average value of viable bacteria counts on all materials examined (Erwinia chrysanthemi; 200 times solution sprayed): 53 cfu/ml
Average value of viable bacteria counts on all materials examined (Erwinia chrysanthemi; 500 times solution sprayed): 3.5 × 10^3 cfu/ml
average value of viable filamentous fungi counts on all materials examined (Pyricularia oryzae; 2 times solution sprayed): 0 cfu/ml
average value of viable filamentous fungi counts on all materials examined (Pyricularia oryzae; 5 times solution sprayed): 0 cfu/ml
average value of viable filamentous fungi counts on all materials examined (Pyricularia oryzae; 25 times solution sprayed): 0 cfu/ml
average value of viable filamentous fungi counts on all materials examined (Pyricularia oryzae; 50 times solution sprayed): 0 cfu/ml
average value of viable filamentous fungi counts on all materials examined (Pyricularia oryzae; 100 times solution sprayed): 0 cfu/ml
average value of viable filamentous fungi counts on all materials examined (Pyricularia oryzae; 200 times solution sprayed): 1.5 × 10^2 cfu/ml
average value of viable filamentous fungi counts on all materials examined (Pyricularia oryzae; 500 times solution sprayed): 2.7 × 10^2 cfu/ml
average value of viable filamentous fungi counts on all materials examined (Pythium ultimum; 2 times solution sprayed): 0 cfu/ml
average value of viable filamentous fungi counts on all materials examined (Pythium ultimum; 5 times solution sprayed): 0 cfu/ml
average value of viable filamentous fungi counts on all materials examined (Pythium ultimum; 25 times solution sprayed): 0 cfu/ml
average value of viable filamentous fungi counts on all materials examined (Pythium ultimum; 50 times solution sprayed): 0 cfu/ml
average value of viable filamentous fungi counts on all materials examined (Pythium ultimum; 100 times solution sprayed): 0 cfu/ml
average value of viable filamentous fungi counts on all materials examined (Pythium ultimum; 200 times solution sprayed): 73 cfu/ml
average value of viable filamentous fungi counts on all materials examined (Pythium ultimum; 500 times solution sprayed): 3.1 × 10^3 cfu/ml
average value of viable filamentous fungi counts on all materials examined (Rhizoctonia solani; 2 times solution sprayed): 0 cfu/ml
average value of viable filamentous fungi counts on all materials examined (Rhizoctonia solani; 5 times solution sprayed): 0 cfu/ml
average value of viable filamentous fungi counts on all materials examined (Rhizoctonia solani; 25 times solution sprayed): 0 cfu/ml
average value of viable filamentous fungi counts on all materials examined (Rhizoctonia solani; 50 times solution sprayed): 0 cfu/ml
average value of viable filamentous fungi counts on all materials examined (Rhizoctonia solani; 100 times solution sprayed): 0 cfu/ml
average value of viable filamentous fungi counts on all materials examined (Rhizoctonia solani; 200 times solution sprayed): 2.5 × 10^2 cfu/ml
average value of viable filamentous fungi counts on all materials examined (Rhizoctonia solani; 500 times solution sprayed): 3.1 × 10^2 cfu/ml
Average value of viable bacteria counts on all materials examined (Ralstonia solanacearum; 2 times solution sprayed): 0 cfu/ml
Average value of viable bacteria counts on all materials examined (Ralstonia solanacearum; 5 times solution sprayed): 0 cfu/ml
Average value of viable bacteria counts on all materials examined (Ralstonia solanacearum; 25 times solution sprayed): 0 cfu/ml
Average value of viable bacteria counts on all materials examined (Ralstonia solanacearum; 50 times solution sprayed): 0 cfu/ml
Average value of viable bacteria counts on all materials examined (Ralstonia solanacearum; 100 times solution sprayed): 0 cfu/ml
Average value of viable bacteria counts on all materials examined (Ralstonia solanacearum; 200 times solution sprayed): 18 cfu/ml
Average value of viable bacteria counts on all materials examined (Ralstonia solanacearum; 500 times solution sprayed): 1.0 × 10^2 cfu/ml

O=C1C=CC(=O)O1 [Maleic anhydride]
sterilization in test using potatoes (in words) [1]: complete sterilization
sterilization effect in test using potatoes (in words) ([1]; 50 times solution): high sterilization effect
Average value of viable bacteria counts on all materials examined (Burkholderia plantarii; 2 times solution sprayed): 0 cfu/ml
Average value of viable bacteria counts on all materials examined (Burkholderia plantarii; 5 times solution sprayed): 0 cfu/ml
Average value of viable bacteria counts on all materials examined (Burkholderia plantarii; 25 times solution sprayed): 0 cfu/ml
Average value of viable bacteria counts on all materials examined (Burkholderia plantarii; 50 times solution sprayed): 0 cfu/ml
Average value of viable bacteria counts on all materials examined (Burkholderia plantarii; 100 times solution sprayed): 0 cfu/ml
Average value of viable bacteria counts on all materials examined (Burkholderia plantarii; 200 times solution sprayed): 7 cfu/ml
Average value of viable bacteria counts on all materials examined (Burkholderia plantarii; 500 times solution sprayed): 1.0 × 10^2 cfu/ml
Average value of viable bacteria counts on all materials examined (Burkholderia glumae; 2 times solution sprayed): 0 cfu/ml
Average value of viable bacteria counts on all materials examined (Burkholderia glumae; 5 times solution sprayed): 0 cfu/ml
Average value of viable bacteria counts on all materials examined (Burkholderia glumae; 25 times solution sprayed): 0 cfu/ml
Average value of viable bacteria counts on all materials examined (Burkholderia glumae; 50 times solution sprayed): 0 cfu/ml
Average value of viable bacteria counts on all materials examined (Burkholderia glumae; 100 times solution sprayed): 0 cfu/ml
Average value of viable bacteria counts on all materials examined (Burkholderia glumae; 200 times solution sprayed): 69 cfu/ml
Average value of viable bacteria counts on all materials examined (Burkholderia glumae; 500 times solution sprayed): 2.0 × 10^2 cfu/ml
sterilization in material disinfection test (in words) [2]: complete sterilization
sterilization of blackleg pathogens (in words) [3]: complete sterilization
sterilization effect on blackleg pathogens (in words) [3]: high sterilization effect
sterilization of ring rot pathogens (in words) [4]: complete sterilization
sterilization effect on ring rot pathogens (in words) [4]: high sterilization effect
average value of viable filamentous fungi counts on all materials examined (Pyricularia oryzae; 2 times solution sprayed): 0 cfu/ml
average value of viable filamentous fungi counts on all materials examined (Pyricularia oryzae; 5 times solution sprayed): 0 cfu/ml
average value of viable filamentous fungi counts on all materials examined (Pyricularia oryzae; 25 times solution sprayed): 0 cfu/ml
average value of viable filamentous fungi counts on all materials examined (Pyricularia oryzae; 50 times solution sprayed): 0 cfu/ml
average value of viable filamentous fungi counts on all materials examined (Pyricularia oryzae; 100 times solution sprayed): 0 cfu/ml
average value of viable filamentous fungi counts on all materials examined (Pyricularia oryzae; 200 times solution sprayed): 32 cfu/ml
average value of viable filamentous fungi counts on all materials examined (Pyricularia oryzae; 500 times solution sprayed): 1.5 × 10^2 cfu/ml
Average value of viable bacteria counts on all materials examined (Ralstonia solanacearum; 2 times solution sprayed): 0 cfu/ml
Average value of viable bacteria counts on all materials examined (Ralstonia solanacearum; 5 times solution sprayed): 0 cfu/ml
Average value of viable bacteria counts on all materials examined (Ralstonia solanacearum; 25 times solution sprayed): 0 cfu/ml
Average value of viable bacteria counts on all materials examined (Ralstonia solanacearum; 50 times solution sprayed): 0 cfu/ml
Average value of viable bacteria counts on all materials examined (Ralstonia solanacearum; 100 times solution sprayed): 0 cfu/ml
Average value of viable bacteria counts on all materials examined (Ralstonia solanacearum; 200 times solution sprayed): 4 cfu/ml
Average value of viable bacteria counts on all materials examined (Ralstonia solanacearum; 500 times solution sprayed): 58 cfu/ml
